Test results taken from the NIST ThermoML archive (doi:10.1021/je200784y).

Conditions: Liquid, Ebulliometric method (Recirculating still)

CCOC(=O)OCC [diethyl carbonate]
Conditions	vapor or sublimation pressure [kPa]
354.68 K	22.56
357.44 K	25.03
359.95 K	27.54
362.26 K	29.99
364.46 K	32.51
366.57 K	35.05
368.45 K	37.52
370.28 K	40.03
372.04 K	42.49
373.73 K	45.05
375.26 K	47.47
376.81 K	50.04
378.22 K	52.46
379.67 K	55.03
381.03 K	57.56
382.32 K	59.95
383.6 K	62.52
384.81 K	64.97
385.98 K	67.44
387.13 K	70.02
388.28 K	72.51
389.32 K	74.96
390.35 K	77.43
391.39 K	79.97
392.45 K	82.52
393.34 K	84.84
394.36 K	87.52
395.23 K	89.81
396.21 K	92.53
397.03 K	94.89
397.96 K	97.54
398.81 K	100.03
399.27 K	101.38
